“And” between values parts separate entries of the source, which are not always exact repeats. Equal values may be shown once. HELM strings list units from the 5' end as sugar, base in round brackets, then linkage (d deoxyribose, r ribose, m 2'-O-methyl, p phosphodiester). Methylation of C is not given here. [moe] = 2'-O-(2-methoxyethyl) (MOE); [cEt] = constrained ethyl (cEt); [sp] = phosphorothioate linkage
molecular target: HBV; settings: ASO, HepG2, 0.0092593 µM

Row | Substance | target mRNA inhibition [%]
1 | RNA1{[moe](G)[sp].[cEt](G)[sp].[cEt](A)[sp].d(G)[sp].d(T)[sp].d(T)[sp].d(C)[sp].d(C)[sp].d(G)[sp].d(C)[sp].d(A)[sp].d(G)[sp].d(T)[sp].[cEt](A)[sp].[cEt](T)[sp].[moe](G)}$$$$V2.0 | 13

same assay, conditions: ASO, HepG2, 0.0277778 µM

Row | Substance | target mRNA inhibition [%]
2 | RNA1{[moe](G)[sp].[cEt](G)[sp].[cEt](A)[sp].d(G)[sp].d(T)[sp].d(T)[sp].d(C)[sp].d(C)[sp].d(G)[sp].d(C)[sp].d(A)[sp].d(G)[sp].d(T)[sp].[cEt](A)[sp].[cEt](T)[sp].[moe](G)}$$$$V2.0 | 42

same assay, conditions: ASO, HepG2, 0.07 µM

Row | Substance | target mRNA inhibition
3 | RNA1{[moe](C)[sp].[moe](G)[sp].[moe](T)[sp].d(G)[sp].d(C)[sp].d(A)[sp].d(G)[sp].d(A)[sp].d(G)[sp].d(G)[sp].d(T)[sp].d(G)[sp].[moe](A)[sp].[moe](A)[sp].[moe](G)[sp].[moe](C)}$$$$V2.0 | 62% and 42%
4 | RNA1{[moe](C)[sp].[moe](G)[sp].d(T)[sp].d(G)[sp].d(C)[sp].d(A)[sp].d(G)[sp].d(A)[sp].d(G)[sp].d(G)[sp].d(T)[sp].[moe](G)[sp].[moe](A)[sp].[moe](A)[sp].[moe](G)[sp].[moe](C)[sp].[moe](G)}$$$$V2.0 | 74% and 68%
5 | RNA1{[moe](C)[sp].[moe](T)[sp].[moe](A)[sp].d(G)[sp].d(T)[sp].d(A)[sp].d(A)[sp].d(A)[sp].d(C)[sp].d(T)[sp].d(G)[sp].d(A)[sp].[moe](G)[sp].[moe](C)[sp].[moe](C)[sp].[moe](A)}$$$$V2.0 | 66% and 60%
6 | RNA1{[moe](C)[sp].[moe](T)[sp].[moe](G)[sp].[moe](G)[sp].[moe](A)[sp].[moe](G)[sp].d(C)[sp].d(C)[sp].d(A)[sp].d(C)[sp].d(C)[sp].d(A)[sp].d(G)[sp].d(C)[sp].d(A)[sp].[moe](G)[sp].[moe](G)}$$$$V2.0 | 54% and 50%
7 | RNA1{[moe](C)[sp].[moe](T)[sp].[moe](G)[sp].[moe](G)[sp].[moe](A)[sp].d(G)[sp].d(C)[sp].d(C)[sp].d(A)[sp].d(C)[sp].d(C)[sp].d(A)[sp].d(G)[sp].d(C)[sp].[moe](A)[sp].[moe](G)[sp].[moe](G)}$$$$V2.0 | 42% and 44%
8 | RNA1{[moe](C)[sp].[moe](T)[sp].[moe](G)[sp].d(G)[sp].d(A)[sp].d(G)[sp].d(C)[sp].d(C)[sp].d(A)[sp].d(C)[sp].d(C)[sp].d(A)[sp].[moe](G)[sp].[moe](C)[sp].[moe](A)[sp].[moe](G)[sp].[moe](G)}$$$$V2.0 | 79% and 64%
9 | RNA1{[moe](G)[sp].[cEt](A)[sp].[cEt](A)[sp].d(C)[sp].d(C)[sp].d(A)[sp].d(C)[sp].d(T)[sp].d(G)[sp].d(A)[sp].d(A)[sp].d(C)[sp].d(A)[sp].[cEt](A)[sp].[cEt](A)[sp].[moe](T)}$$$$V2.0 | 65% and 53%
10 | RNA1{[moe](G)[sp].[cEt](A)[sp].[cEt](G)[sp].d(G)[sp].d(C)[sp].d(A)[sp].d(T)[sp].d(A)[sp].d(G)[sp].d(C)[sp].d(A)[sp].d(G)[sp].d(C)[sp].[cEt](A)[sp].[cEt](G)[sp].[moe](G)}$$$$V2.0 | 64% and 67%
11 | RNA1{[moe](G)[sp].[cEt](A)[sp].[cEt](G)[sp].d(T)[sp].d(T)[sp].d(C)[sp].d(C)[sp].d(G)[sp].d(C)[sp].d(A)[sp].d(G)[sp].d(T)[sp].d(A)[sp].[cEt](T)[sp].[cEt](G)[sp].[moe](G)}$$$$V2.0 | 83% and 76%
12 | RNA1{[moe](G)[sp].[cEt](A)[sp].d(A)[sp].d(G)[sp].d(T)[sp].d(C)[sp].d(C)[sp].d(A)[sp].d(C)[sp].d(C)[sp].d(A)[sp].d(C)[sp].[cEt](G)[sp].[moe](A)[sp].[cEt](G)[sp].[moe](T)}$$$$V2.0 | 43% and 50%
13 | RNA1{[moe](G)[sp].[cEt](C)[sp].[cEt](A)[sp].d(G)[sp].d(T)[sp].d(A)[sp].d(T)[sp].d(G)[sp].d(G)[sp].d(A)[sp].d(T)[sp].d(C)[sp].d(G)[sp].[cEt](G)[sp].[cEt](C)[sp].[moe](A)}$$$$V2.0 | 77% and 75%
14 | RNA1{[moe](G)[sp].[cEt](G)[sp].[cEt](A)[sp].d(G)[sp].d(T)[sp].d(T)[sp].d(C)[sp].d(C)[sp].d(G)[sp].d(C)[sp].d(A)[sp].d(G)[sp].d(T)[sp].[cEt](A)[sp].[cEt](T)[sp].[moe](G)}$$$$V2.0 | 90% and 76%
15 | RNA1{[moe](G)[sp].[cEt](T)[sp].[cEt](G)[sp].d(C)[sp].d(A)[sp].d(G)[sp].d(A)[sp].d(G)[sp].d(G)[sp].d(T)[sp].d(G)[sp].d(A)[sp].d(A)[sp].[cEt](G)[sp].[cEt](C)[sp].[moe](G)}$$$$V2.0 | 67% and 70%
16 | RNA1{[moe](G)[sp].[moe](A)[sp].[moe](A)[sp].[moe](C)[sp].[moe](C)[sp].d(A)[sp].d(C)[sp].d(T)[sp].d(G)[sp].d(A)[sp].d(A)[sp].d(C)[sp].d(A)[sp].d(A)[sp].[moe](A)[sp].[moe](T)}$$$$V2.0 | 34% and 36%
17 | RNA1{[moe](G)[sp].[moe](A)[sp].[moe](A)[sp].[moe](C)[sp].[moe](T)[sp].d(G)[sp].d(G)[sp].d(A)[sp].d(G)[sp].d(C)[sp].d(C)[sp].d(A)[sp].d(C)[sp].d(C)[sp].[moe](A)[sp].[moe](G)[sp].[moe](C)}$$$$V2.0 | 41% and 50%
18 | RNA1{[moe](G)[sp].[moe](A)[sp].[moe](A)[sp].[moe](C)[sp].d(C)[sp].d(A)[sp].d(C)[sp].d(T)[sp].d(G)[sp].d(A)[sp].d(A)[sp].d(C)[sp].d(A)[sp].[moe](A)[sp].[moe](A)[sp].[moe](T)}$$$$V2.0 | 34% and 23%

Row | Substance | target mRNA inhibition
19 | RNA1{[moe](G)[sp].[moe](A)[sp].[moe](A)[sp].[moe](C)[sp].d(T)[sp].d(G)[sp].d(G)[sp].d(A)[sp].d(G)[sp].d(C)[sp].d(C)[sp].d(A)[sp].d(C)[sp].[moe](C)[sp].[moe](A)[sp].[moe](G)[sp].[moe](C)}$$$$V2.0 | 69% and 49%
20 | RNA1{[moe](G)[sp].[moe](A)[sp].[moe](A)[sp].d(G)[sp].d(T)[sp].d(C)[sp].d(C)[sp].d(A)[sp].d(C)[sp].d(C)[sp].d(A)[sp].d(C)[sp].[moe](G)[sp].[moe](A)[sp].[moe](G)[sp].[moe](T)[sp].[moe](C)}$$$$V2.0 | 33% and 23%
21 | RNA1{[moe](G)[sp].[moe](A)[sp].[moe](G)[sp].[moe](A)[sp].[moe](A)[sp].[moe](G)[sp].d(T)[sp].d(C)[sp].d(C)[sp].d(A)[sp].d(C)[sp].d(C)[sp].d(A)[sp].d(C)[sp].d(G)[sp].[moe](A)[sp].[moe](G)}$$$$V2.0 | 27% and 23%
22 | RNA1{[moe](G)[sp].[moe](A)[sp].[moe](G)[sp].[moe](A)[sp].d(A)[sp].d(G)[sp].d(T)[sp].d(C)[sp].d(C)[sp].d(A)[sp].d(C)[sp].d(C)[sp].d(A)[sp].[moe](C)[sp].[moe](G)[sp].[moe](A)[sp].[moe](G)}$$$$V2.0 | 42% and 29%
23 | RNA1{[moe](G)[sp].[moe](A)[sp].[moe](G)[sp].[moe](G)[sp].[moe](C)[sp].d(A)[sp].d(T)[sp].d(A)[sp].d(G)[sp].d(C)[sp].d(A)[sp].d(G)[sp].d(C)[sp].d(A)[sp].[moe](G)[sp].[moe](G)}$$$$V2.0 | 44% and 39%
24 | RNA1{[moe](G)[sp].[moe](A)[sp].[moe](G)[sp].[moe](G)[sp].[moe](T)[sp].d(G)[sp].d(A)[sp].d(A)[sp].d(G)[sp].d(C)[sp].d(G)[sp].d(A)[sp].d(A)[sp].d(G)[sp].[moe](T)[sp].[moe](G)}$$$$V2.0 | 46% and 39%
25 | RNA1{[moe](G)[sp].[moe](A)[sp].[moe](G)[sp].d(G)[sp].d(C)[sp].d(A)[sp].d(T)[sp].d(A)[sp].d(G)[sp].d(C)[sp].d(A)[sp].d(G)[sp].[moe](C)[sp].[moe](A)[sp].[moe](G)[sp].[moe](G)}$$$$V2.0 | 58% and 57%
26 | RNA1{[moe](G)[sp].[moe](A)[sp].[moe](G)[sp].d(G)[sp].d(T)[sp].d(G)[sp].d(A)[sp].d(A)[sp].d(G)[sp].d(C)[sp].d(G)[sp].d(A)[sp].[moe](A)[sp].[moe](G)[sp].[moe](T)[sp].[moe](G)[sp].[moe](C)}$$$$V2.0 | 81% and 71%
27 | RNA1{[moe](G)[sp].[moe](A)[sp].[moe](G)[sp].d(T)[sp].d(T)[sp].d(C)[sp].d(C)[sp].d(G)[sp].d(C)[sp].d(A)[sp].d(G)[sp].d(T)[sp].[moe](A)[sp].[moe](T)[sp].[moe](G)[sp].[moe](G)}$$$$V2.0 | 54% and 30%
28 | RNA1{[moe](G)[sp].[moe](A)[sp].[moe](T)[sp].[moe](G)[sp].[moe](A)[sp].d(G)[sp].d(G)[sp].d(C)[sp].d(A)[sp].d(T)[sp].d(A)[sp].d(G)[sp].d(C)[sp].d(A)[sp].[moe](G)[sp].[moe](C)[sp].[moe](A)}$$$$V2.0 | 46% and 21%
29 | RNA1{[moe](G)[sp].[moe](C)[sp].[moe](A)[sp].[moe](C)[sp].[moe](T)[sp].[moe](A)[sp].d(G)[sp].d(T)[sp].d(A)[sp].d(A)[sp].d(A)[sp].d(C)[sp].d(T)[sp].d(G)[sp].d(A)[sp].[moe](G)[sp].[moe](C)}$$$$V2.0 | 74% and 65%
30 | RNA1{[moe](G)[sp].[moe](C)[sp].[moe](A)[sp].[moe](C)[sp].[moe](T)[sp].d(A)[sp].d(G)[sp].d(T)[sp].d(A)[sp].d(A)[sp].d(A)[sp].d(C)[sp].d(T)[sp].d(G)[sp].[moe](A)[sp].[moe](G)[sp].[moe](C)}$$$$V2.0 | 58% and 63%
31 | RNA1{[moe](G)[sp].[moe](C)[sp].[moe](A)[sp].[moe](C)[sp].d(T)[sp].d(A)[sp].d(G)[sp].d(T)[sp].d(A)[sp].d(A)[sp].d(A)[sp].d(C)[sp].d(T)[sp].[moe](G)[sp].[moe](A)[sp].[moe](G)}$$$$V2.0 | 52% and 53%
32 | RNA1{[moe](G)[sp].[moe](C)[sp].[moe](A)[sp].[moe](T)[sp].[moe](A)[sp].d(G)[sp].d(C)[sp].d(A)[sp].d(G)[sp].d(C)[sp].d(A)[sp].d(G)[sp].d(G)[sp].d(A)[sp].[moe](T)[sp].[moe](G)}$$$$V2.0 | 57% and 54%
33 | RNA1{[moe](G)[sp].[moe](C)[sp].[moe](A)[sp].d(G)[sp].d(A)[sp].d(G)[sp].d(G)[sp].d(T)[sp].d(G)[sp].d(A)[sp].d(A)[sp].d(G)[sp].d(C)[sp].[cEt](G)[sp].[cEt](A)[sp].[cEt](A)}$$$$V2.0 | 71% and 50%
34 | RNA1{[moe](G)[sp].[moe](C)[sp].d(A)[sp].d(G)[sp].d(A)[sp].d(G)[sp].d(G)[sp].d(T)[sp].d(G)[sp].d(A)[sp].d(A)[sp].[moe](G)[sp].[moe](C)[sp].[moe](G)[sp].[moe](A)[sp].[moe](A)[sp].[moe](G)}$$$$V2.0 | 20% and 40%

same assay, conditions: ASO, HepG2, 0.0833333 µM

Row | Substance | target mRNA inhibition [%]
35 | RNA1{[moe](G)[sp].[cEt](G)[sp].[cEt](A)[sp].d(G)[sp].d(T)[sp].d(T)[sp].d(C)[sp].d(C)[sp].d(G)[sp].d(C)[sp].d(A)[sp].d(G)[sp].d(T)[sp].[cEt](A)[sp].[cEt](T)[sp].[moe](G)}$$$$V2.0 | 74

same assay, conditions: ASO, HepG2, 0.25 µM

Row | Substance | target mRNA inhibition [%]
36 | RNA1{[moe](G)[sp].[cEt](G)[sp].[cEt](A)[sp].d(G)[sp].d(T)[sp].d(T)[sp].d(C)[sp].d(C)[sp].d(G)[sp].d(C)[sp].d(A)[sp].d(G)[sp].d(T)[sp].[cEt](A)[sp].[cEt](T)[sp].[moe](G)}$$$$V2.0 | 89
